Measured values: ChEMBL document CHEMBL1201862, “PubChem BioAssay data set” (2004)
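Test compounds were applied to cells in 96-well plates for 48 hours at 5 doses. GI50: concentration for 50% inhibition of growth.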 The source made the active and inactive calls. No stated cut-off is given here; in the data, active = GI50 up to about 1.1 µM and inactive = higher.

Assays:
Assay in all cases: DTP human tumour cell line panel, 48 h
[1] = tested on: SNB-19
[2] = tested on: OVCAR-5
[3] = tested on: UACC-62
[4] = tested on: EKVX
[5] = tested on: CCRF-CEM
[6] = tested on: ACHN
[7] = tested on: SR
[8] = tested on: KM12
[9] = tested on: KM-20L2
[10] = tested on: DLD-1
[11] = tested on: A549
[12] = tested on: SK-MEL-2
[13] = tested on: HL-60
[14] = tested on: LXFL 529
[15] = tested on: CAKI-1
[16] = tested on: HT-29
[17] = tested on: SF-268
[18] = tested on: OVCAR-3
[19] = tested on: OVCAR-4
[20] = tested on: IGROV-1
[21] = tested on: HCT-15
[22] = tested on: TK-10
[23] = tested on: SK-OV-3
[24] = tested on: NCI-H23
[25] = tested on: SNB-78
[26] = tested on: SK-MEL-28
[27] = tested on: SF-539
[28] = tested on: XF498
[29] = tested on: SF-295
[30] = tested on: SK-MEL-5
[31] = tested on: M19-MEL
[32] = tested on: COLO 205
[33] = tested on: RXF 393
[34] = tested on: MOLT-4
[35] = tested on: Malme-3M
[36] = tested on: SW-620
[37] = tested on: NCI-H522
[38] = tested on: 786-0
[39] = tested on: RXF 631
[40] = tested on: HOP-92
[41] = tested on: SN12C
[42] = tested on: UO-31
[43] = tested on: HCC 2998
[44] = tested on: K562
[45] = tested on: OVCAR-8
[46] = tested on: U-251
[47] = tested on: DMS-114
[48] = tested on: M14
[49] = tested on: SNB-75
[50] = tested on: HOP-62
[51] = tested on: NCI-H226
[52] = tested on: UACC-257
[53] = tested on: LOX IMVI
[54] = tested on: HOP-18
[55] = tested on: A498
[56] = tested on: NCI-H460
[57] = tested on: HCT-116
[58] = tested on: RPMI-8226
[59] = tested on: DMS-273

With `CN(C)c1ccc(/C=C(\NC(=O)c2ccccc2)c2nc3cncnc3[nH]2)cc1` the GI50 [1] was > 100 µM (inactive), the GI50 [2] was > 100 µM (inactive) and the GI50 [3] was > 100 µM (inactive). For the same compound, the GI50 [4] was > 100 µM (inactive), the GI50 [5] was > 100 µM (inactive) and the GI50 [6] was > 100 µM (inactive). The GI50 [7] was > 100 µM (inactive), the GI50 [8] was > 100 µM (inactive) and the GI50 [9] was > 100 µM (inactive). For the same compound, the GI50 [10] was > 100 µM (inactive), the GI50 [11] was > 100 µM (inactive) and the GI50 [12] was > 100 µM (inactive). For the same compound, the GI50 [13] was > 100 µM (inactive), the GI50 [14] was > 100 µM (inactive) and the GI50 [15] was > 100 µM (inactive). The GI50 [16] was > 100 µM (inactive), the GI50 [17] was > 100 µM (inactive) and the GI50 [18] was > 100 µM (inactive). The GI50 [19] was > 100 µM (inactive), the GI50 [20] was > 100 µM (inactive) and the GI50 [21] was over 100 µM. The GI50 [22] was > 100 µM (inactive), the GI50 [23] was > 100 µM (inactive) and the GI50 [24] was > 100 µM (inactive). For the same compound, the GI50 [25] was > 100 µM (inactive), the GI50 [26] was > 100 µM (inactive) and the GI50 [27] was > 100 µM (inactive). The GI50 [28] was > 100 µM (inactive), the GI50 [29] was > 100 µM (inactive) and the GI50 [30] was > 100 µM (inactive). For the same compound, the GI50 [31] was > 100 µM (inactive), the GI50 [32] was > 100 µM (inactive) and the GI50 [33] was > 100 µM (inactive). For the same compound, the GI50 [34] was > 100 µM (inactive), the GI50 [35] was > 100 µM (inactive) and the GI50 [36] was > 100 µM (inactive). The GI50 [37] was > 100 µM (inactive), the GI50 [38] was > 100 µM (inactive) and the GI50 [39] was > 100 µM (inactive). The GI50 [40] was 41.5 µM (inactive), the GI50 [41] was > 100 µM (inactive) and the GI50 [42] was > 100 µM (inactive). The GI50 [43] was > 100 µM (inactive), the GI50 [44] was > 100 µM (inactive) and the GI50 [45] was > 100 µM (inactive). The GI50 [46] was > 100 µM (inactive), the GI50 [47] was > 100 µM (inactive) and the GI50 [48] was > 100 µM (inactive).
With `N=C(N)Nc1nc2cc(N)ccc2o1` the GI50 [1] was > 100 µM (inactive), the GI50 [3] was > 100 µM (inactive) and the GI50 [4] was > 100 µM (inactive). For the same compound, the GI50 [5] was > 100 µM (inactive), the GI50 [6] was > 100 µM (inactive) and the GI50 [7] was > 100 µM (inactive). The GI50 [49] was > 100 µM (inactive), the GI50 [50] was > 100 µM (inactive) and the GI50 [8] was > 100 µM (inactive). The GI50 [9] was > 100 µM (inactive), the GI50 [10] was > 100 µM (inactive) and the GI50 [11] was > 100 µM (inactive). For the same compound, the GI50 [12] was > 100 µM (inactive), the GI50 [13] was > 100 µM (inactive) and the GI50 [51] was > 100 µM (inactive). The GI50 [15] was > 100 µM (inactive), the GI50 [16] was > 100 µM (inactive) and the GI50 [17] was > 100 µM (inactive). The GI50 [19] was > 100 µM (inactive), the GI50 [21] was over 100 µM and the GI50 [22] was > 100 µM (inactive). The GI50 [23] was > 100 µM (inactive), the GI50 [52] was > 100 µM (inactive) and the GI50 [24] was > 100 µM (inactive). For the same compound, the GI50 [25] was > 100 µM (inactive), the GI50 [26] was > 100 µM (inactive) and the GI50 [27] was > 100 µM (inactive). The GI50 [29] was > 100 µM (inactive), the GI50 [53] was > 100 µM (inactive) and the GI50 [31] was > 100 µM (inactive). For the same compound, the GI50 [54] was > 100 µM (inactive), the GI50 [34] was > 100 µM (inactive) and the GI50 [55] was > 100 µM (inactive). For the same compound, the GI50 [35] was > 100 µM (inactive), the GI50 [36] was > 100 µM (inactive) and the GI50 [37] was > 100 µM (inactive). For the same compound, the GI50 [56] was > 100 µM (inactive), the GI50 [38] was > 100 µM (inactive) and the GI50 [39] was > 100 µM (inactive). The GI50 [40] was > 100 µM (inactive), the GI50 [41] was > 100 µM (inactive) and the GI50 [57] was > 100 µM (inactive). For the same compound, the GI50 [42] was > 100 µM (inactive), the GI50 [43] was > 100 µM (inactive) and the GI50 [44] was > 100 µM (inactive). For the same compound, the GI50 [45] was > 100 µM (inactive), the GI50 [46] was > 100 µM (inactive) and the GI50 [48] was > 100 µM (inactive).
`CC(C)(CN1CCOCC1)C(=O)/C=C/c1ccc(/C=C/C(=O)C(C)(C)CN2CCOCC2)cc1` was tested, and the GI50 [1] was 1.55 µM (inactive), the GI50 [2] was 1.8 µM (inactive) and the GI50 [3] was 1.56 µM (inactive). The GI50 [4] was 1.65 µM (inactive), the GI50 [5] was 1.36 µM (inactive) and the GI50 [6] was 1.52 µM (inactive). For the same compound, the GI50 [49] was 1.94 µM (inactive), the GI50 [50] was 2.46 µM (inactive) and the GI50 [8] was 1.54 µM (inactive). For the same compound, the GI50 [9] was 1.36 µM (inactive), the GI50 [10] was 0.338 µM (active) and the GI50 [11] was 2.89 µM (inactive). For the same compound, the GI50 [13] was 1.45 µM (inactive), the GI50 [14] was 1.1 µM (active) and the GI50 [51] was 2.29 µM (inactive). For the same compound, the GI50 [15] was 1.4 µM (inactive), the GI50 [16] was 0.467 µM (active) and the GI50 [17] was 1.59 µM (inactive). For the same compound, the GI50 [18] was 1.07 µM (active), the GI50 [19] was 0.942 µM (active) and the GI50 [20] was 2.09 µM (inactive). The GI50 [21] was 0.297 µM, the GI50 [22] was 1.86 µM (inactive) and the GI50 [23] was 3.85 µM (inactive). For the same compound, the GI50 [52] was 1.99 µM (inactive), the GI50 [24] was 1.58 µM (inactive) and the GI50 [25] was 1.21 µM (inactive). The GI50 [26] was 1.77 µM (inactive), the GI50 [27] was 2.07 µM (inactive) and the GI50 [28] was 1.42 µM (inactive). For the same compound, the GI50 [29] was 2.21 µM (inactive), the GI50 [53] was 0.393 µM (active) and the GI50 [30] was 1.79 µM (inactive). For the same compound, the GI50 [32] was 1.64 µM (inactive), the GI50 [33] was 1.83 µM (inactive) and the GI50 [34] was 0.281 µM (active). For the same compound, the GI50 [55] was 1.97 µM (inactive), the GI50 [35] was 2.12 µM (inactive) and the GI50 [36] was 1.01 µM (active). The GI50 [37] was 0.278 µM (active), the GI50 [56] was 3.5 µM (inactive) and the GI50 [38] was 2 µM (inactive). The GI50 [39] was 1.36 µM (inactive), the GI50 [40] was 2.33 µM (inactive) and the GI50 [41] was 1.35 µM (inactive). For the same compound, the GI50 [57] was 0.408 µM (active), the GI50 [58] was 2.7 µM (inactive) and the GI50 [42] was 1.75 µM (inactive). The GI50 [43] was 1.83 µM (inactive), the GI50 [44] was 0.239 µM (active) and the GI50 [45] was 1.45 µM (inactive). For the same compound, the GI50 [46] was 1.24 µM (inactive), the GI50 [59] was 457 nM (active) and the GI50 [47] was 0.757 µM (active). The GI50 [48] was 1.69 µM (inactive).
